Measured values as given in paper PMC5218480 (PLoS ONE, 2017).

Test system: MV-4-11 cells
Assay: Gene expression microarray analysis (Affymetrix PrimeView) and GSEA
Assay type: cell-based, human
Parameters: RFU PODN (11730768_x_at) / Fold change /veh PODN (11730768_x_at) / RFU LINC00158 (11744669_a_at) / Fold change /veh LINC00158 (11744669_a_at) / RFU DUSP10 (11751237_a_at) / Fold change /veh DUSP10 (11751237_a_at) / RFU ID3 (11757404_x_at) / Fold change /veh ID3 (11757404_x_at) / RFU PLEKHG5 (11737974_s_at) / Fold change /veh PLEKHG5 (11737974_s_at) / RFU LRRC4B (11730491_at) / Fold change /veh LRRC4B (11730491_at) / RFU GIMAP4 (11747438_a_at) / Fold change /veh GIMAP4 (11747438_a_at) / RFU KRT8 (11758183_x_at) / Fold change /veh KRT8 (11758183_x_at) / RFU CNN1 (11734310_a_at) / Fold change /veh CNN1 (11734310_a_at) / RFU VPS37D (11726825_at) / Fold change /veh VPS37D (11726825_at) / RFU C10orf10 (11716522_x_at) / Fold change /veh C10orf10 (11716522_x_at) / RFU KIR2DL2 /// KIR2DL4 /// KIR2DL5A /// KIR2DL5B /// KIR2DS1 /// KIR2DS2 /// KIR2DS3 /// KIR2DS4 /// KIR3DL3 /// KIR3DL3 /// KIR3DS1 (11738374_at) / Fold change /veh KIR2DL2 /// KIR2DL4 /// KIR2DL5A /// KIR2DL5B /// KIR2DS1 /// KIR2DS2 /// KIR2DS3 /// KIR2DS4 /// KIR3DL3 /// KIR3DL3 /// KIR3DS1 (11738374_at) / RFU C1QL1 (11718748_at) / Fold change /veh C1QL1 (11718748_at) / RFU TMPRSS4 (11747572_a_at) / Fold change /veh TMPRSS4 (11747572_a_at) / RFU HAMP (11756126_x_at) / Fold change /veh HAMP (11756126_x_at) / RFU RNFT2 (11725882_a_at) / Fold change /veh RNFT2 (11725882_a_at) / RFU NR4A2 (11747474_a_at) / Fold change /veh NR4A2 (11747474_a_at) / RFU ABCC12 (11746883_a_at) / Fold change /veh ABCC12 (11746883_a_at) / RFU TMEM136 (11760407_x_at) / Fold change /veh TMEM136 (11760407_x_at) / RFU CLDN22 /// WWC2 (11732394_at) / Fold change /veh CLDN22 /// WWC2 (11732394_at) / RFU HLA-DPB1 (11760878_x_at) / Fold change /veh HLA-DPB1 (11760878_x_at) / RFU SPINT1 (11716480_a_at) / Fold change /veh SPINT1 (11716480_a_at) / RFU GAP43 (11754022_s_at) / Fold change /veh GAP43 (11754022_s_at) / RFU A4GNT (11735810_at) / Fold change /veh A4GNT (11735810_at) / RFU PRB3 (11715151_x_at) / Fold change /veh PRB3 (11715151_x_at) / RFU TUBB4B (11761932_at) / Fold change /veh TUBB4B (11761932_at) / RFU CAPN14 (11732068_a_at) / Fold change /veh CAPN14 (11732068_a_at) / RFU TMCC2 (11721928_a_at) / Fold change /veh TMCC2 (11721928_a_at) / RFU IRGQ (11745062_a_at) / Fold change /veh IRGQ (11745062_a_at) / RFU FAM174B (11720279_a_at) / Fold change /veh FAM174B (11720279_a_at) / RFU TMPRSS4 (11748680_a_at) / Fold change /veh TMPRSS4 (11748680_a_at) / RFU FAM212B (11763350_a_at) / Fold change /veh FAM212B (11763350_a_at) / RFU PLEKHG5 (11743358_a_at) / Fold change /veh PLEKHG5 (11743358_a_at) / RFU ZSCAN30 (11745921_a_at) / Fold change /veh ZSCAN30 (11745921_a_at) / RFU CMKLR1 (11741424_a_at) / Fold change /veh CMKLR1 (11741424_a_at) / RFU LOC101060620 /// MAPK8IP1 (11723275_at) / Fold change /veh LOC101060620 /// MAPK8IP1 (11723275_at) / RFU SPTSSB (11747773_x_at) / Fold change /veh SPTSSB (11747773_x_at) / RFU PRSS12 (11739890_at) / Fold change /veh PRSS12 (11739890_at) / RFU BIN1 (11741810_x_at) / Fold change /veh BIN1 (11741810_x_at) / RFU WNT11 (11732464_a_at) / Fold change /veh WNT11 (11732464_a_at) / RFU C10orf10 (11716521_a_at) / Fold change /veh C10orf10 (11716521_a_at) / RFU C5orf56 (11738089_at) / Fold change /veh C5orf56 (11738089_at) / RFU CYB561 (11721691_x_at) / Fold change /veh CYB561 (11721691_x_at) / RFU ANKRD19P (11752326_a_at) / Fold change /veh ANKRD19P (11752326_a_at) / RFU OR2T12 /// OR2T33 /// OR2T8 (11738714_s_at) / Fold change /veh OR2T12 /// OR2T33 /// OR2T8 (11738714_s_at) / RFU VCAN (11748164_a_at) / Fold change /veh VCAN (11748164_a_at) / RFU JSRP1 (11732532_at) / Fold change /veh JSRP1 (11732532_at) / RFU KRTAP10-11 (11738290_x_at) / Fold change /veh KRTAP10-11 (11738290_x_at) / RFU MYO3A (11730013_a_at) / Fold change /veh MYO3A (11730013_a_at) / RFU EBF3 (11725865_a_at) / Fold change /veh EBF3 (11725865_a_at) / RFU CAMK2N1 (11719241_x_at) / Fold change /veh CAMK2N1 (11719241_x_at) / RFU C5orf56 (11738088_a_at) / Fold change /veh C5orf56 (11738088_a_at) / RFU OLFML3 (11715873_a_at) / Fold change /veh OLFML3 (11715873_a_at) / RFU LOC100653217 /// NTM (11731650_a_at) / Fold change /veh LOC100653217 /// NTM (11731650_a_at) / RFU MAPK11 (11762145_a_at) / Fold change /veh MAPK11 (11762145_a_at) / RFU FIZ1 (11724087_x_at) / Fold change /veh FIZ1 (11724087_x_at) / RFU OASL (11726364_x_at) / Fold change /veh OASL (11726364_x_at) / RFU SOX15 (11748057_x_at) / Fold change /veh SOX15 (11748057_x_at) / RFU CD79A (11719716_a_at) / Fold change /veh CD79A (11719716_a_at) / RFU HIST1H1D (11736915_at) / Fold change /veh HIST1H1D (11736915_at) / RFU CASKIN2 (11723855_a_at) / Fold change /veh CASKIN2 (11723855_a_at) / RFU LOC730098 (11760151_x_at) / Fold change /veh LOC730098 (11760151_x_at) / RFU OR4N2 (11742367_at) / Fold change /veh OR4N2 (11742367_at) / RFU PRRT2 (11749266_a_at) / Fold change /veh PRRT2 (11749266_a_at) / RFU SNX32 (11753110_a_at) / Fold change /veh SNX32 (11753110_a_at) / RFU CDHR5 (11726645_a_at) / Fold change /veh CDHR5 (11726645_a_at) / RFU RCAN1 (11760418_a_at) / Fold change /veh RCAN1 (11760418_a_at) / RFU FAM167A (11723789_a_at) / Fold change /veh FAM167A (11723789_a_at) / RFU FAM26E (11764081_at) / Fold change /veh FAM26E (11764081_at) / RFU ISYNA1 (11749810_s_at) / Fold change /veh ISYNA1 (11749810_s_at) / RFU ACY1 (11761880_at) / Fold change /veh ACY1 (11761880_at) / RFU 11764098_at / Fold change /veh 11764098_at / RFU SAMD14 (11745864_x_at) / Fold change /veh SAMD14 (11745864_x_at) / RFU NPB (11741838_a_at) / Fold change /veh NPB (11741838_a_at) / RFU TMPRSS6 (11731388_a_at) / Fold change /veh TMPRSS6 (11731388_a_at) / RFU KRTAP10-2 (11738614_at) / Fold change /veh KRTAP10-2 (11738614_at) / RFU ARHGAP8 /// PRR5-ARHGAP8 (11727945_x_at) / Fold change /veh ARHGAP8 /// PRR5-ARHGAP8 (11727945_x_at) / RFU KRTAP5-7 /// NADSYN1 (11734609_at) / Fold change /veh KRTAP5-7 /// NADSYN1 (11734609_at) / RFU RASL12 (11751679_a_at) / Fold change /veh RASL12 (11751679_a_at) / RFU CDKN2B (11736163_a_at) / Fold change /veh CDKN2B (11736163_a_at) / RFU PRF1 (11729649_at) / Fold change /veh PRF1 (11729649_at) / RFU, ZNF638 /// ZNF638-IT1 / Fold change vs veh, ZNF638 /// ZNF638-IT1 / RFU, PANK3 / Fold change vs veh, PANK3 / RFU, SH3YL1 / Fold change vs veh, SH3YL1 / RFU, ZEB2 / Fold change vs veh, ZEB2 / RFU, NRIP1 / Fold change vs veh, NRIP1 / RFU, PTTG1IP / Fold change vs veh, PTTG1IP / RFU, CAPN2 / Fold change vs veh, CAPN2 / RFU, MED14 / Fold change vs veh, MED14 / RFU, SNORA58 / Fold change vs veh, SNORA58 / RFU, C1orf63 / Fold change vs veh, C1orf63 / RFU, LRRFIP1 / Fold change vs veh, LRRFIP1 / RFU, NDUFAF7 / Fold change vs veh, NDUFAF7 / RFU, SLC12A2 / Fold change vs veh, SLC12A2 / RFU, IBTK / Fold change vs veh, IBTK / RFU, ESF1 / Fold change vs veh, ESF1 / Fold change vs veh, TMEM50B / RFU, TAOK1 / Fold change vs veh, TAOK1 / RFU, ACBD3 / Fold change vs veh, ACBD3 / RFU, TMA16 / Fold change vs veh, TMA16 / RFU, RWDD3 / Fold change vs veh, RWDD3 / RFU, BCAT1 / Fold change vs veh, BCAT1 / RFU, EDEM3 / Fold change vs veh, EDEM3 / RFU, TMEM33 / Fold change vs veh, TMEM33 / RFU, WDR75 / Fold change vs veh, WDR75 / RFU, AHCTF1 / Fold change vs veh, AHCTF1 / RFU, TFRC / Fold change vs veh, TFRC / RFU, ZDHHC17 / Fold change vs veh, ZDHHC17 / RFU, NOM1 / Fold change vs veh, NOM1 / RFU, ARL8B / Fold change vs veh, ARL8B / RFU, ZBTB11 / Fold change vs veh, ZBTB11 / RFU, TAMM41 / Fold change vs veh, TAMM41 / RFU, KIAA1704 /// LOC100996395 / Fold change vs veh, KIAA1704 /// LOC100996395 / RFU, ING1 / Fold change vs veh, ING1 / RFU, TRMT61B / Fold change vs veh, TRMT61B / RFU, FUBP3 / Fold change vs veh, FUBP3 / RFU, TP53 / Fold change vs veh, TP53 / RFU, TNKS2 / Fold change vs veh, TNKS2 / RFU, ZFP14 / Fold change vs veh, ZFP14 / RFU, ACTR2 / Fold change vs veh, ACTR2 / RFU, PPP3R1 / Fold change vs veh, PPP3R1 / RFU, PIK3R1 / Fold change vs veh, PIK3R1 / RFU, HNRNPA1 / Fold change vs veh, HNRNPA1 / RFU, RNF170 / Fold change vs veh, RNF170 / RFU, ZNF28 / Fold change vs veh, ZNF28 / RFU, RNGTT / Fold change vs veh, RNGTT / RFU, OGT / Fold change vs veh, OGT / RFU, BRD1 / Fold change vs veh, BRD1 / RFU, MARS / Fold change vs veh, MARS / RFU, ZNF655 / Fold change vs veh, ZNF655 / RFU, FAHD1 / Fold change vs veh, FAHD1 / RFU, BDP1 / Fold change vs veh, BDP1 / RFU, LRRCC1 / Fold change vs veh, LRRCC1 / RFU, ARID1A / Fold change vs veh, ARID1A / RFU, ZNF146 / Fold change vs veh, ZNF146 / RFU, ZNF330 / Fold change vs veh, ZNF330 / RFU, GPN3 / Fold change vs veh, GPN3 / RFU, C9orf123 / Fold change vs veh, C9orf123 / RFU, N4BP2L2 / Fold change vs veh, N4BP2L2 / RFU, ARFIP1 / Fold change vs veh, ARFIP1 / RFU, FAM179B / Fold change vs veh, FAM179B / RFU, BCL10 / Fold change vs veh, BCL10 / RFU, UHRF1BP1L / Fold change vs veh, UHRF1BP1L / RFU, BET1 / Fold change vs veh, BET1 / RFU, CNOT2 / Fold change vs veh, CNOT2 / RFU, ZNF268 / Fold change vs veh, ZNF268 / Fold change vs veh, ZNF507 / RFU, DGCR2 / Fold change vs veh, DGCR2 / RFU, WDSUB1 / Fold change vs veh, WDSUB1 / Fold change vs veh, HSP90B1 /// MIR3652 / RFU, ADSS / Fold change vs veh, ADSS / RFU, GK / Fold change vs veh, GK / RFU, ZNF148 / Fold change vs veh, ZNF148 / RFU, TAF9 / Fold change vs veh, TAF9 / RFU, SLC1A5 / Fold change vs veh, SLC1A5 / RFU, SLMO2 / Fold change vs veh, SLMO2 / RFU, ABCC4 / Fold change vs veh, ABCC4 / RFU, LOC101060439 /// RAP1B / Fold change vs veh, LOC101060439 /// RAP1B / RFU, RFX7 / Fold change vs veh, RFX7 / RFU, GTPBP10 / Fold change vs veh, GTPBP10 / RFU, CNEP1R1 / Fold change vs veh, CNEP1R1 / RFU, BIVM-ERCC5 /// ERCC5 / Fold change vs veh, BIVM-ERCC5 /// ERCC5 / RFU, ILF3 / Fold change vs veh, ILF3 / RFU 11762660_at / Fold change /veh 11762660_at / RFU VCAN (11757783_s_at) / Fold change /veh VCAN (11757783_s_at) / RFU DDX43 (11728927_at) / Fold change /veh DDX43 (11728927_at) / RFU KRT8 (11758188_x_at) / Fold change /veh KRT8 (11758188_x_at) / RFU NKD1 (11759106_at) / Fold change /veh NKD1 (11759106_at) / RFU SRD5A1 (11742802_a_at) / Fold change /veh SRD5A1 (11742802_a_at) / RFU TPSAB1 /// TPSB2 (11721975_s_at) / Fold change /veh TPSAB1 /// TPSB2 (11721975_s_at) / RFU GSTM3 (11746129_a_at) / Fold change /veh GSTM3 (11746129_a_at) / RFU IL23R (11737362_x_at) / Fold change /veh IL23R (11737362_x_at) / RFU TMEM51 (11727254_a_at) / Fold change /veh TMEM51 (11727254_a_at) / RFU PIWIL2 (11732686_x_at) / Fold change /veh PIWIL2 (11732686_x_at) / RFU ORM1 (11744905_x_at) / Fold change /veh ORM1 (11744905_x_at) / RFU CCDC152 (11743942_at) / Fold change /veh CCDC152 (11743942_at) / RFU ECM1 (11717891_a_at) / Fold change /veh ECM1 (11717891_a_at) / RFU IL23R (11748794_a_at) / Fold change /veh IL23R (11748794_a_at) / RFU TNFAIP8L3 (11732012_x_at) / Fold change /veh TNFAIP8L3 (11732012_x_at) / RFU MBOAT4 (11741988_at) / Fold change /veh MBOAT4 (11741988_at) / RFU 11764193_at / Fold change /veh 11764193_at / RFU TMEM53 (11763286_at) / Fold change /veh TMEM53 (11763286_at) / RFU MAGEB2 (11727129_at) / Fold change /veh MAGEB2 (11727129_at) / RFU TMEM200A (11744735_a_at) / Fold change /veh TMEM200A (11744735_a_at) / RFU CCDC152 (11751479_a_at) / Fold change /veh CCDC152 (11751479_a_at) / RFU FAM211A (11726209_a_at) / Fold change /veh FAM211A (11726209_a_at) / RFU RGS16 (11746705_a_at) / Fold change /veh RGS16 (11746705_a_at) / RFU VCAN (11755009_s_at) / Fold change /veh VCAN (11755009_s_at) / RFU RHOB (11743442_s_at) / Fold change /veh RHOB (11743442_s_at) / RFU RGS16 (11720943_a_at) / Fold change /veh RGS16 (11720943_a_at) / RFU RGS16 (11720944_at) / Fold change /veh RGS16 (11720944_at) / RFU, VPS4B / Fold change vs veh, VPS4B / RFU, CREB1 / Fold change vs veh, CREB1 / RFU, DNAJC13 / Fold change vs veh, DNAJC13 / RFU, GNAQ / Fold change vs veh, GNAQ / RFU, CDK5R1 / Fold change vs veh, CDK5R1 / RFU, ZRANB3 / Fold change vs veh, ZRANB3 / RFU, CUL4A / Fold change vs veh, CUL4A / RFU, CCNY / Fold change vs veh, CCNY / RFU, UFL1 / Fold change vs veh, UFL1 / RFU, COG3 / Fold change vs veh, COG3 / RFU, DIAPH2 / Fold change vs veh, DIAPH2 / RFU, SKA2 / Fold change vs veh, SKA2 / RFU, AFF3 / Fold change vs veh, AFF3 / RFU, LMF1 / Fold change vs veh, LMF1 / RFU, IPO11 / Fold change vs veh, IPO11 / RFU, DFFB / Fold change vs veh, DFFB / RFU, FOXP1 / Fold change vs veh, FOXP1 / RFU, CARD8 / Fold change vs veh, CARD8 / RFU, STRN3 / Fold change vs veh, STRN3 / RFU, ADK / Fold change vs veh, ADK / RFU, RASSF2 / Fold change vs veh, RASSF2 / RFU, WIPF1 / Fold change vs veh, WIPF1 / RFU, LARP1B / Fold change vs veh, LARP1B / RFU, RASA1 / Fold change vs veh, RASA1 / RFU, RB1 / Fold change vs veh, RB1 / RFU, PPFIA1 / Fold change vs veh, PPFIA1 / RFU, MAT2A / Fold change vs veh, MAT2A / RFU, CCT5 / Fold change vs veh, CCT5 / RFU, WDR92 / Fold change vs veh, WDR92 / RFU, CUX1 / Fold change vs veh, CUX1 / RFU, TTC7A / Fold change vs veh, TTC7A / RFU, TMEM135 / Fold change vs veh, TMEM135 / RFU, DEPTOR / Fold change vs veh, DEPTOR / RFU, CPM / Fold change vs veh, CPM / RFU, DNAJB6 / Fold change vs veh, DNAJB6 / RFU, CACNA2D3 / Fold change vs veh, CACNA2D3 / RFU, DTX4 / Fold change vs veh, DTX4 / RFU, TFCP2 / Fold change vs veh, TFCP2 / RFU, GMCL1 /// GMCL1P1 / Fold change vs veh, GMCL1 /// GMCL1P1 / RFU, AEBP2 / Fold change vs veh, AEBP2 / RFU, SNHG1 /// SNORD22 /// SNORD25 /// SNORD26 /// SNORD27 /// SNORD28 /// SNORD29 /// SNORD31 / Fold change vs veh, SNHG1 /// SNORD22 /// SNORD25 /// SNORD26 /// SNORD27 /// SNORD28 /// SNORD29 /// SNORD31 / Fold change (Aza/veh), C12orf56 (ProbeSet 11735607_a_at) / Fold change (ACY-1035/veh), C12orf56 (ProbeSet 11735607_a_at) / Fold change (Aza/veh), FGFR1OP (ProbeSet 11751329_s_at) / Fold change (ACY-1035/veh), FGFR1OP (ProbeSet 11751329_s_at) / Fold change (Aza/veh), VPS36 (ProbeSet 11739960_a_at) / Fold change (ACY-1035/veh), VPS36 (ProbeSet 11739960_a_at) / RFU SYPL1 (11715823_x_at) / Fold change /veh SYPL1 (11715823_x_at) / RFU IGFBP7 (11715501_s_at) / Fold change /veh IGFBP7 (11715501_s_at) / RFU REEP3 (11722064_at) / Fold change /veh REEP3 (11722064_at) / RFU IGLL1 (11728026_x_at) / Fold change /veh IGLL1 (11728026_x_at): dose or concentration left out as unconfirmed
Conditions: MV-4-11 cells, 48 hours

Nc1ncn([C@@H]2O[C@H](CO)[C@@H](O)[C@H]2O)c(=O)n1 [azacitidine]
RFU RGS16 (11720943_a_at): 102.77 RFU
